Consider 4 compounds from patent publication US20250109157A1, “COMPOUNDS AND METHODS FOR TREATMENT OF VIRAL INFECTIONS” (Gilead Sciences, Inc., priority 2023, published 2025).

SMILES strings stand for the structures. Some results are limits rather than exact numbers.

For one data set, the system named is RSV strain A2. The experiment in a line: RSV EC50 HEp-2 cytopathic cell protection assay. To be noted: human respiratory syncytial virus, 96 h; HEp-2 cells, RSV strain A2, 4 days, Cell TiterGlo; read-out: RSV EC50 HEp2. Type of data set: cell-based. A general note: Damage to the host cells serves as the signal in cytopathic effect assays.
A short description of another data set: HEp-2 CC50 cytotoxicity. In kind it is cell-based. To be noted: human; HEp-2 cells, 4-5 days, CellTiter Glo; read-out: HEp2 CC50. The protocol:
(§1) HEp-2 (1.5×10^3 cells/well) or MT4 (2×10^3 cells/well) cells were plated in 384-well plates and incubated with the appropriate medium containing 3-fold serially diluted compound ranging from 15 nM to 100,000 nM. Cells were cultured for 4-5 days at 37° C. Following the incubation, the cells were allowed to equilibrate to 25° C., and cell viability was determined by adding CellTiter Glo viability reagent. The mixture was incubated for 10 min, and the luminescence signal was quantified using an Envision plate reader. Cell lines were not authenticated and were not tested for mycoplasma as part of routine use in cytotoxicity assays.
(Cellular ATP, detected with luciferase, serves as a proxy for viable cell number.)

Another data set can be described thus: MT4 CC50 cytotoxicity. Type of data set: cell-based. To be noted: human; MT4 cells, 4-5 days, CellTiter Glo. How it is done: as §1
A further data set has as its system MERS-CoV. Kind of data set: microbe, parasite or virus in culture. Type of data set: cell-based. To be noted: Middle East respiratory syndrome-related coronavirus, Vero 76, 72 h, read-out: MERS CoV EC50.
For the next data set, the target named is RSV RNP complexes (Human respiratory syncytial virus A, UniProt P28887). Kind of data set: RSV RNP Polymerase IC50 transcription assay. In kind it is biochemical. To be noted: crude RSV RNP complexes, 90 min at 30° C. How it is done: Transcription reactions contained 25 μg of crude RSV RNP complexes in 30 μL of reaction buffer (50 mM TRIS-acetate [pH 8.0], 120 mM potassium acetate, 5% glycerol, 4.5 mM MgCl2, 3 mM DTT, 2 mM EGTA, 50 μg/mL BSA, 2.5 U RNasin, 20 μM ATP, 100 μM GTP, 100 μM UTP, 100 μM CTP, and 1.5 μCi [α-^32P] ATP [3,000 Ci/mmol]). The radiolabeled nucleotide used in the transcription assay was selected to match the nucleotide analog being evaluated for inhibition of RSV RNP transcription. To determine whether nucleotide analogs inhibited RSV RNP transcription, compounds were added using a 6-step serial dilution in 5-fold increments. After a 90 min incubation at 30° C., the RNP, reactions were stopped with 350 μL of Qiagen RLT lysis buffer, and the RNA was purified using a Qiagen RNeasy 96 kit. Purified RNA was denatured in RNA sample loading buffer at 65° C. for 10 min and run on a 1.2% agarose/MOPS gel containing 2M formaldehyde. The agarose gel was dried, exposed to a Storm phosphorimaging screen, and developed using a Storm phosphorimager.

The next data set addresses DENV2 NS5 (Dengue virus type 2, UniProt P14340). The experiment in a line: DENGUE sshRNA Polymerase IC50. Type of data set: biochemical. The note with it: 100 nM DENV2 NS5, sshRNA template, 90 minutes at 30° C. How it is done: A 244 nucleotide secondary structureless heteropolymeric RNA (sshRNA) with sequence 5′-(UCAG)20(UCCAAG)14(UCAG)20-3′ (SEQ ID NO: 1) is used as the template with 5′-CUG-3′ primer in the DENV2-NS5 polymerase assay. Six two-fold dilutions of compounds starting from 200 nM and no inhibitor control are plated in 96-well plates. […] Enzyme mix is added to compound dilutions and reactions initiated by the addition of a mixture containing 20 μM of three natural NTP plus 2 μM of analog:base matched competing natural NTP containing 1:100 α-^33P-NTP. After 90 minutes at 30° C., 5 μL of the reaction mixtures are spotted on DE81 anion exchange paper. Filter papers are washed three times with Na2HPO4 (125 mM, pH 9) for 5 minutes, rinsed with water and ethanol, then air-dried and exposed to phosphorimager. Synthesized RNA is quantified using Typhoon Trio Imager and Image Quant TL Software and reaction rates are calculated by linear regression using GraphPad Prism 5.0. IC50 values are calculated in Prism by non-linear regression analysis using the dose-response (variable slope) equation (four-parameter logistic equation): Y=Bottom+(Top−Bottom)/(1+10^((LogIC50−X)*HillSlope)).

The target of a further data set is POLRMT (Homo sapiens, UniProt O00411). Kind of data set: MTRNAP SNI single nucleotide incorporation. The note with it: 376 nM POLRMT, 500 μM NTP analog. In kind it is biochemical. The protocol:
A mixture of MTCN buffer (50 mM MES, 25 mM Tris-HCl, 25 mM CAPS, and 50 mM NaCl, pH 7.5), 200 nM 5′-32P-R12/D18, 10 mM MgCl2, 1 mM DTT, and 376 nM POLRMT was preincubated at 30° C. for 1 min. The reaction was started by addition of 500 μM (final) natural NTP or NTP analogs. At selected time points, the reaction mixture was removed and quenched with gel loading buffer containing 100 mM EDTA, 80% formamide, and bromophenol blue, and heated at 65° C. for 5 min. The samples were run on a 20% polyacrylamide gel (8 M urea), and the product formation was quantified using Typhoon Trio Imager and Image Quant TL Software (GE Healthcare, Piscataway, NJ). The rate of single nucleotide incorporation by mt RNA pol was calculated by fitting the product formation using the single exponential equation: [R13]=A(1−e−kt), where [R13] represents the amount (in nM) of the elongated product formed, t represents the reaction time, k represents the observed rate, and A represents the amplitude of the exponential.

In another data set the test system is SARS-CoV2-Nluc viruses. The experiment in a line: microbe, parasite or virus in culture. In kind it is cell-based, SARS-CoV-2. To be noted: Severe acute respiratory syndrome coronavirus 2, A549, 48 h.
Data set [1] has as its system Dengue serotype 2 New Guinea C (NGC) strain. The experiment in a line: DENV EC50 Huh7 qPCR assay. Type of data set: cell-based. The note with it: Dengue virus, Huh-7, Huh7 cells, DENV2 NGC, MOI 0.1, 48 hours. How it is done: Huh7 (Human hepatocarcinoma 7) cells were maintained in 10% FCS-containing DMEM complete media. On the day of the assay, cells were trypsinized (0.1% Trypsin-EDTA), washed and infected for 2 hours in serum-free DMEM with Dengue serotype 2 New Guinea C (NGC) strain at MOI=0.1 with gentle agitation at 37° C. After 2 hours, cells were washed with serum-free media and suspended in 10% FCS-containing DMEM (Gibco, supplemented with sodium pyruvate, NEAA, Penicillin-Streptomycin). 10^5 cells were plated in triplicate in 96-well plates with compounds dispensed at graded doses (Hewlett-Packard D300 Digital Dispenser). All wells were normalized to 0.25% DMSO. At 48 hours, cells were washed with 1×PBS and all supernatants removed. Total RNA was extracted using RNEasy 96 plates (Qiagen) and used to generate first-strand cDNA using XLT cDNA 5× Supermix (QuantaBio). cDNA was used as a template in a Taqman qPCR duplex reaction specific to DENV2 viral and GAPDH gene expression. EC50 values were determined using Prism Graphpad software, with normalization to a positive control and no compound negative control wells.
(Quantitative PCR measures a nucleic acid by following its amplification.)

A further data set can be described thus: Huh7 CC50 cytotoxicity. In kind it is cell-based. To be noted: human, Huh7 cells, CellTiter-Glo. The protocol: Human hepatocarcinoma 7 (Huh7) cells were maintained in 10% FCS-containing complete DMEM. On day of assay, cells were trypsinized with 0.1% Trypsin-EDTA, washed and cultured in triplicate at 1-2×10^4 cells/well in 96-well plates with compounds dispensed at graded doses (Hewlett-Packard D300 Digital Dispenser). All wells were normalized to 0.25% DMSO. After 48 h, CellTiter-Gio (Promega) was added and incubated for 10 minutes at room temp before reading on a luminometer. % viability curves were calculated against no compound and no cell control wells. CC50 values (compound concentration for reducing 50% of luminescence signal as a measure of cell viability) were determined using Prism Graphpad software.

Another data set deals with Zika virus strain MR766. The experiment in a line: Zika EC50 Huh7 XTT assay. To be noted: Huh-7, read-out: Zika EC50 Huh7.
A short description of data set [2]: A549-hACE2 CC50 cytotoxicity. In kind it is cell-based. To be noted: human, A549-hACE2 cells, CellTiter-Glo. The protocol: The cytotoxicity of compounds was determined in A549-hACE2 cells in the following manner. Compounds (200 nL) were spotted onto 384-well Grenier plates prior to seeding 5000 A549-hACE2 cells/well in a volume of 40 μL culture medium. The plates were incubated at 37° C. for 48 hours with 5% CO2. On day 2, 40 μL of CellTiter-Glo (Promega) was added and mixed 5 times. Plates were read for luminescence on an Envision (PerkinElmer) and the CC50 values were calculated using a nonlinear regression model (four parameters).

For orientation: EC50 means the concentration that produces a half-maximal response. For orientation: CC50 means the concentration that lowers cell viability or growth by half. The term IC50 denotes the point on the concentration scale where inhibition reaches its midpoint.

Chain of POLRMT (O00411 42-1230): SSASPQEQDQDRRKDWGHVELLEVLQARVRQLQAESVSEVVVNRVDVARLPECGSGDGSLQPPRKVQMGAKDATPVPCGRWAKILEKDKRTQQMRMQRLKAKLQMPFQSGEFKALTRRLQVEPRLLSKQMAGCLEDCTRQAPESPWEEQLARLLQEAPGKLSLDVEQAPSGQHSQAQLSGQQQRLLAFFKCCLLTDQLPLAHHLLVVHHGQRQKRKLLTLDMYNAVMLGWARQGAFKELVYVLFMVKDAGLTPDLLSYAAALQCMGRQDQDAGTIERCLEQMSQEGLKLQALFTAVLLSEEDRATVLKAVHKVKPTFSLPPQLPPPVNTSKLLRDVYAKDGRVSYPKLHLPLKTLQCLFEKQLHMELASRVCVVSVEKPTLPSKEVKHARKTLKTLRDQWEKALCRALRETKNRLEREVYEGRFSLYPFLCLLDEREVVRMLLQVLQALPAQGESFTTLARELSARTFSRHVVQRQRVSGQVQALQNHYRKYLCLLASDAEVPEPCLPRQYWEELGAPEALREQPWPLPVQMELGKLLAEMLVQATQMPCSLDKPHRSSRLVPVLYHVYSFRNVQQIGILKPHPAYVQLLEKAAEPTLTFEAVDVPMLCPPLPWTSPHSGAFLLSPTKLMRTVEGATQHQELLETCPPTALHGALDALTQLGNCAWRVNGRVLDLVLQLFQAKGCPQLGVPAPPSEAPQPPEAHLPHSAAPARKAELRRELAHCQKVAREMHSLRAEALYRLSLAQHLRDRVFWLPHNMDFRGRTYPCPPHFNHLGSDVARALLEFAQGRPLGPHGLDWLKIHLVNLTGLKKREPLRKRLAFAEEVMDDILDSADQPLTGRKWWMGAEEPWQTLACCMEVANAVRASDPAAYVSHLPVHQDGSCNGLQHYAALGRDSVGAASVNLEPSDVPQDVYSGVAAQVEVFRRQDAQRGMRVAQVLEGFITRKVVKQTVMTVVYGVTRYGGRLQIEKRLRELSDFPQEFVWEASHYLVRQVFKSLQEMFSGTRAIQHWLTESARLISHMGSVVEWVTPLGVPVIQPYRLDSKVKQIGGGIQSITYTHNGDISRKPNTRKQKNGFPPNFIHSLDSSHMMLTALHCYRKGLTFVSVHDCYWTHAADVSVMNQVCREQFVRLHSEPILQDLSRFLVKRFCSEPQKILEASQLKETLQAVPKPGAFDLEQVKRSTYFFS
Chain of RSV RNP complexes (P03421 whole entry): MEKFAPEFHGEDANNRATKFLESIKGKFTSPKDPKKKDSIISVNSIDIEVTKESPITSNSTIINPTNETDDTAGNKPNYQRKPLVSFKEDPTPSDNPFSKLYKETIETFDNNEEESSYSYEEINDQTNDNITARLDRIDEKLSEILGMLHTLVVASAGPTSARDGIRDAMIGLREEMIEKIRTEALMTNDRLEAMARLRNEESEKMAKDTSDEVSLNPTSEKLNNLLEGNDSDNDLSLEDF
Chain of RSV RNP complexes (P28887 whole entry): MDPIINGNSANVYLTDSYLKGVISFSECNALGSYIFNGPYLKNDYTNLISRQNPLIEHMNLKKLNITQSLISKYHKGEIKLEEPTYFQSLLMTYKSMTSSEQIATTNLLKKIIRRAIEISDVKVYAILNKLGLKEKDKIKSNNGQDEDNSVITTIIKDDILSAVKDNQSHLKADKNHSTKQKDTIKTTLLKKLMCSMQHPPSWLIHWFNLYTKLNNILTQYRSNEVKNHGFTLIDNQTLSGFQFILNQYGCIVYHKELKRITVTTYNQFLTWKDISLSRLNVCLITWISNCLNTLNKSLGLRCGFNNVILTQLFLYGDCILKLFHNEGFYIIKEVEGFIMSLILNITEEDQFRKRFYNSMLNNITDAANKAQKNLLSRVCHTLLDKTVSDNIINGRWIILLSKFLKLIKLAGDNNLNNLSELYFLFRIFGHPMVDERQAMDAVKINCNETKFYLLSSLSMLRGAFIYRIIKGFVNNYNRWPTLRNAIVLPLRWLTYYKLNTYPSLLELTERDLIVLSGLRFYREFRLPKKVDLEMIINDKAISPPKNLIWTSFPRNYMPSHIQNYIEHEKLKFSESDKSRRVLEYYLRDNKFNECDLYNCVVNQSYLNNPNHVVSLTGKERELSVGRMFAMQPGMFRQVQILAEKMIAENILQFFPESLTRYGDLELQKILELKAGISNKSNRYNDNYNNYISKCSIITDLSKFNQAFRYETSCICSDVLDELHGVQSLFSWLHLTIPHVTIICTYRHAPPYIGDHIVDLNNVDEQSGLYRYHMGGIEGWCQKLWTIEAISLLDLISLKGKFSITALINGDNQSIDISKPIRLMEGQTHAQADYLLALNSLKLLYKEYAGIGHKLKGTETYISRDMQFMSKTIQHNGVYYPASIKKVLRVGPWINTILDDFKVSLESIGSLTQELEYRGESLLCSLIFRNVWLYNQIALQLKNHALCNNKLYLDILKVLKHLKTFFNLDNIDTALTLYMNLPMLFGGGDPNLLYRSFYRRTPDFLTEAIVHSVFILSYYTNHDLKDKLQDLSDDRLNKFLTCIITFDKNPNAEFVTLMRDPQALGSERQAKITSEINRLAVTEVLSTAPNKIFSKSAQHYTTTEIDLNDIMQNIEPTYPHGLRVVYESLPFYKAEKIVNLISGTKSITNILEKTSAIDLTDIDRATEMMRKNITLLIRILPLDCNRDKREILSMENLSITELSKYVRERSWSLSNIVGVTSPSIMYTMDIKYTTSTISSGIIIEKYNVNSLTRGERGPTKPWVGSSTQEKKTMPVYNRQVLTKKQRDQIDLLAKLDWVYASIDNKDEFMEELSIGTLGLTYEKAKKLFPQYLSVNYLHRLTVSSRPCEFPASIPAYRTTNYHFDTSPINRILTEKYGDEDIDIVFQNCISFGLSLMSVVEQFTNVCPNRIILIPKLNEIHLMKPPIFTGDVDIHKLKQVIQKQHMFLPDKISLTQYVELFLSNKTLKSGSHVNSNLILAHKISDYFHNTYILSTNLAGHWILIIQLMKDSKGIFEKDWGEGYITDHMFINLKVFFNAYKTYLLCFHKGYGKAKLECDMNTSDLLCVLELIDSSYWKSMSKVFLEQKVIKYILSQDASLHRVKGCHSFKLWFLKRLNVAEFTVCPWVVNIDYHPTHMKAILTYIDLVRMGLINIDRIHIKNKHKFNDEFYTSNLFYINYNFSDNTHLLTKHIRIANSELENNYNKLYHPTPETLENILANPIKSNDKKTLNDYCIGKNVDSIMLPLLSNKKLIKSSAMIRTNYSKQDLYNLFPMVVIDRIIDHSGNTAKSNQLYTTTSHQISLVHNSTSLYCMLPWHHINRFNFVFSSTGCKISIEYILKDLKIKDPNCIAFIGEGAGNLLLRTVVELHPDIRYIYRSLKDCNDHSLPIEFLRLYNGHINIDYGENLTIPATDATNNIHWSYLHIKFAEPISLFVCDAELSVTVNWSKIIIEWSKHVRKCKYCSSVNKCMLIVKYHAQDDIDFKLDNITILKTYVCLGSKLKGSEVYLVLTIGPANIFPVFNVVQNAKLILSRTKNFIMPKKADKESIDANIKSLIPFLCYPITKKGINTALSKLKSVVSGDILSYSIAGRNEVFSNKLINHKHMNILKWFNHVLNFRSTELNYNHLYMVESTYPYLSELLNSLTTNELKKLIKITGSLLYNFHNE

For `CC(C)(C)C(=O)SCCOP(=O)(OCCSC(=O)C(C)(C)C)OC[C@H]1O[C@@](C#N)(c2csc3c(N)ncnc23)[C@H](O)[C@@H]1O` [Compound C4], the EC50 in the data set with RSV strain A2 was determined as 2.7 µM. In addition, the CC50 is > 50 µM in “HEp-2 CC50 cytotoxicity” and 11.1 µM in “MT4 CC50 cytotoxicity”.
With `N#C[C@@]1(c2csc3c(N)ncnc23)O[C@H](CO)[C@@H](O)[C@H]1O` [Compound C1, (2R,3R,4S,5R)-2-(4-aminothieno[3,2-d]pyrimidin-7-yl)-3,4-dihydroxy-5-(hydroxymethyl)tetrahydrofuran-2-carbonitrile], the half-maximal effective concentration (EC50) in the data set on MERS-CoV was 2.2 µM; in the data set with RSV strain A2 it was 3.1 µM. Besides, the CC50 in “HEp-2 CC50 cytotoxicity” is > 100 µM; in “MT4 CC50 cytotoxicity” it was > 114 µM.
As for `N#C[C@@]1(c2csc3c(N)ncnc23)O[C@H](COP(=O)(O)OP(=O)(O)OP(=O)(O)O)[C@@H](O)[C@H]1O` [Compound C2, ((2R,3S,4R,5R)-5-(4-aminothieno[3,2-d]pyrimidin-7-yl)-5-cyano-3,4-dihydroxytetrahydrofuran-2-yl)methyl tetrahydrogen triphosphate], the figures for the IC50 on RSV RNP complexes and at DENV2 NS5 were 2.91 µM and 8.96 µM, respectively. Besides, the “MTRNAP SNI (% incorporation)” value at POLRMT was 0.61 % incorporation.
Regarding `CCC(CC)COC(=O)[C@H](C)NP(=O)(OC[C@H]1O[C@@](C#N)(c2csc3c(N)ncnc23)[C@H](O)[C@@H]1O)Oc1ccccc1` (stereo partly drawn) [Compound C3, 2-ethylbutyl ((((2R,3S,4R,5R)-5-(4-aminothieno[3,2-d]pyrimidin-7-yl)-5-cyano-3,4-dihydroxytetrahydrofuran-2-yl)methoxy)(phenoxy)phosphoryl)-L-alaninate], the EC50 with SARS-CoV2-Nluc viruses was found to be 1.19 µM; in data set [1], 1.85 µM; in the data set with Zika virus strain MR766, 6.94 µM; in the data set on RSV strain A2, 0.435 µM. Besides, the CC50 at 48 h in the data set “Huh7 CC50 cytotoxicity” is > 25 µM; in data set [2] it was > 50 µM. The CC50 is > 37.2 µM in the data set “HEp-2 CC50 cytotoxicity” and 19 µM in the data set “MT4 CC50 cytotoxicity”.
